Biological target: T1, Aspergillus niger beta-glucosidase, wild type, yEdQ745-BG (CAB75696.1, SEQ ID NO:2) (Aspergillus niger, UniProt Q9P8F4)
T1 construct: strain yEdQ745
T1 sequence (Q9P8F4 20-860): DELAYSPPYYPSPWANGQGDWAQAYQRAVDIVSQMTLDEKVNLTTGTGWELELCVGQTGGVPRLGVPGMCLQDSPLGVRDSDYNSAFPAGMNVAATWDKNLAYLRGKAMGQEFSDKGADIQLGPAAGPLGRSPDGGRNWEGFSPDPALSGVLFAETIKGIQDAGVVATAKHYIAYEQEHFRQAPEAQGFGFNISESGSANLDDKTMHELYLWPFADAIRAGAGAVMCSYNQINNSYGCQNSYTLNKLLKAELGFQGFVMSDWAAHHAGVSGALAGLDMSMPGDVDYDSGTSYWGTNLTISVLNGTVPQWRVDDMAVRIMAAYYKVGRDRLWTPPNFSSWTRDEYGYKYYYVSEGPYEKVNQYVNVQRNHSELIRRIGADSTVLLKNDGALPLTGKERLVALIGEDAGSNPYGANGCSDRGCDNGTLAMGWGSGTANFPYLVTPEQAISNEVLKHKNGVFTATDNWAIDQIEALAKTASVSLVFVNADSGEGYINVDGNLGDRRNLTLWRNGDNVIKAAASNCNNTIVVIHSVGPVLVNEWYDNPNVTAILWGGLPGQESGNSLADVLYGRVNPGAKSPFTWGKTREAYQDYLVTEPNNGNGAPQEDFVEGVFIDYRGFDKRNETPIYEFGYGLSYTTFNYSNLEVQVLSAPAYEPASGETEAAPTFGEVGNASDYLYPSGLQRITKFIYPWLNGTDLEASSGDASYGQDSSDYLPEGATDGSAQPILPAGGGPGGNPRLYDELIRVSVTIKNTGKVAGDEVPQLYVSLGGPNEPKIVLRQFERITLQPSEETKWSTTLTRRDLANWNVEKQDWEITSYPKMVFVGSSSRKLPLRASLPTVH
Assay: BG kinetics, pNPG hydrolysis assay with glucose as competitive inhibitor, yEdQ745-BG
Type: biochemical
Text: Accordingly, in some embodiments, the unmodified form of the beta-glucosidase is a wild-type or a naturally occurring beta-glucosidase, such as, for example, a fungal beta-glucosidase. The full nucleic acid and amino acid sequence for numerous fungal beta-glucosidases are available. The amino acid sequence of A. niger beta-glucosidase is provided as SEQ ID NO:2. Thus, in some embodiments, the unmodified beta-glucosidase is from an Aspergillus species. In some embodiments, the unmodified beta-glucosidase is from a Trichoderma species.
The beta-glucosidase (BG) gene from Aspergillus niger (Accession #CAB75696.1) was integrated into the TR3 yeast background at the T4U3 genomic site.
The BG-expressing strains were subsequently used in corn mash and corn stover simultaneous saccharification and fermentation (SSF) studies using flask scale and pilot plant fermentations. […]
BG activity assay using pNPG is one of the two commonly used standard assays to measure BG activity, which utilizes hydrolysis of p-nitrophenyl-β-D-glucopyranoside (pNPG) by BG into a yellow colored product, p-nitrophenol (pNP), that has a strong absorbance at 405 nm. […] The reaction was then terminated by adding 100 μL of 0.25 M sodium carbonate, and the amount of pNP produced was determined by measuring absorbance at 405 nm using a predetermined calibration curve. […]

OC[C@H]1OC(O)[C@H](O)[C@@H](O)[C@@H]1O (some centres unmarked) [glucose]
Ki: 2130 ± 180 µM
Km/Ki (inhibitor influence, Km for pNPG / Ki for glucose, pH 5.0, 50° C.): 0.30

Reference: patent US10077436B2, “Beta-glucosidase enzymes for increased biomass saccharification” (Edeniq, Inc., priority 2013, dated 2018)
